In patent publication US9221746B2, “Homo- and hetero-polyamino-acid derivatives of fullerene C60, method for producing same, and pharmaceutical compositions based on said derivatives” (priority 2011, dated 2015):

Tested on: A/Aichi/2/69 (H3N2) influenza virus
Test: Induced influenza pneumonia in mice
[1] = LD70, intramuscularly 50 mg/kg/day
[2] = LD70, intramuscularly 100 mg/kg/day
[3] = LD70, intramuscularly 200 mg/kg/day
[4] = LD70, intraperitoneally 50 mg/kg/day
[5] = LD70, intraperitoneally 100 mg/kg/day

## Fullerene Poly(Aminocaproic Acid) of Formula C60(H3){NH(CH2)5COO—}3{NH3^+(CH2)5COOH}3 [Agent No. 1]
[1]
  Average lifetime (days): 13.3 (1-7 d., 1-8 d.) days
  Percent death protection (%): 50%
LD70, intramuscularly 50 mg/kg/day, day 1
  Percent body weight change in days post infection: +20%
LD70, intramuscularly 50 mg/kg/day, day 2
  Percent body weight change in days post infection: +22%
LD70, intramuscularly 50 mg/kg/day, day 3
  Percent body weight change in days post infection: +22%
LD70, intramuscularly 50 mg/kg/day, day 4
  Percent body weight change in days post infection: +17%
LD70, intramuscularly 50 mg/kg/day, day 5
  Percent body weight change in days post infection: +11%
LD70, intramuscularly 50 mg/kg/day, day 7
  Percent body weight change in days post infection: +9%
LD70, intramuscularly 50 mg/kg/day, day 9
  Percent body weight change in days post infection: +11%
LD70, intramuscularly 50 mg/kg/day, day 11
  Percent body weight change in days post infection: +19%
LD70, intramuscularly 50 mg/kg/day, day 13
  Percent body weight change in days post infection: +26%
[2]
  Percent death protection (%): 70%
  average lifetime: >16 days
LD70, intramuscularly 100 mg/kg/day, day 1
  Percent body weight change in days post infection: +21%
LD70, intramuscularly 100 mg/kg/day, day 2
  Percent body weight change in days post infection: +25%
LD70, intramuscularly 100 mg/kg/day, day 3
  Percent body weight change in days post infection: +27%
LD70, intramuscularly 100 mg/kg/day, day 4
  Percent body weight change in days post infection: +23%
LD70, intramuscularly 100 mg/kg/day, day 5
  Percent body weight change in days post infection: +20%
LD70, intramuscularly 100 mg/kg/day, day 7
  Percent body weight change in days post infection: +21.5%
LD70, intramuscularly 100 mg/kg/day, day 9
  Percent body weight change in days post infection: +32%
LD70, intramuscularly 100 mg/kg/day, day 11
  Percent body weight change in days post infection: +35.5%
LD70, intramuscularly 100 mg/kg/day, day 13
  Percent body weight change in days post infection: +38%
[3]
  Average lifetime (days): 13.8 (1-7 d., 1-13 d.) days
  Percent death protection (%): 50%
LD70, intramuscularly 200 mg/kg/day, day 1
  Percent body weight change in days post infection: +25%
LD70, intramuscularly 200 mg/kg/day, day 2
  Percent body weight change in days post infection: +27%
LD70, intramuscularly 200 mg/kg/day, day 3
  Percent body weight change in days post infection: +28%
LD70, intramuscularly 200 mg/kg/day, day 4
  Percent body weight change in days post infection: +24%
LD70, intramuscularly 200 mg/kg/day, day 5
  Percent body weight change in days post infection: +20%
LD70, intramuscularly 200 mg/kg/day, day 7
  Percent body weight change in days post infection: +23%
LD70, intramuscularly 200 mg/kg/day, day 9
  Percent body weight change in days post infection: +22%
LD70, intramuscularly 200 mg/kg/day, day 11
  Percent body weight change in days post infection: +25%
LD70, intramuscularly 200 mg/kg/day, day 13
  Percent body weight change in days post infection: +36.5%
[4]
  Average lifetime (days): 13.4 (2-8 d.) days
  Percent death protection (%): 50%
LD70, intraperitoneally 50 mg/kg/day, day 1
  Percent body weight change in days post infection: +21%
LD70, intraperitoneally 50 mg/kg/day, day 2
  Percent body weight change in days post infection: +27%
LD70, intraperitoneally 50 mg/kg/day, day 3
  Percent body weight change in days post infection: +29%
LD70, intraperitoneally 50 mg/kg/day, day 4
  Percent body weight change in days post infection: +21%
LD70, intraperitoneally 50 mg/kg/day, day 5
  Percent body weight change in days post infection: +16%
LD70, intraperitoneally 50 mg/kg/day, day 7
  Percent body weight change in days post infection: +15%
LD70, intraperitoneally 50 mg/kg/day, day 9
  Percent body weight change in days post infection: +31%
LD70, intraperitoneally 50 mg/kg/day, day 11
  Percent body weight change in days post infection: +36%
LD70, intraperitoneally 50 mg/kg/day, day 13
  Percent body weight change in days post infection: +40%
[5]
  Average lifetime (days): 13.7 (1-3 d.) days
  Percent death protection (%): 60%
LD70, intraperitoneally 100 mg/kg/day, day 1
  Percent body weight change in days post infection: +19%
LD70, intraperitoneally 100 mg/kg/day, day 2
  Percent body weight change in days post infection: +23%
LD70, intraperitoneally 100 mg/kg/day, day 3
  Percent body weight change in days post infection: +22%
LD70, intraperitoneally 100 mg/kg/day, day 4
  Percent body weight change in days post infection: +18%
LD70, intraperitoneally 100 mg/kg/day, day 5
  Percent body weight change in days post infection: +15%
LD70, intraperitoneally 100 mg/kg/day, day 7
  Percent body weight change in days post infection: +18%
LD70, intraperitoneally 100 mg/kg/day, day 9
  Percent body weight change in days post infection: +25%
LD70, intraperitoneally 100 mg/kg/day, day 11
  Percent body weight change in days post infection: +33%
LD70, intraperitoneally 100 mg/kg/day, day 13
  Percent body weight change in days post infection: +41%
LD70, intraperitoneally 200 mg/kg/day
  Percent death protection (%): 0%
LD70, intraperitoneally 200 mg/kg/day, day 1
  Percent body weight change in days post infection: +7%
LD70, intraperitoneally 200 mg/kg/day, day 2
  Percent body weight change in days post infection: +6%
LD70, intraperitoneally 200 mg/kg/day, day 3
  Percent body weight change in days post infection: +5%
LD70, intraperitoneally 200 mg/kg/day, day 4
  Percent body weight change in days post infection: −4%
LD70, intraperitoneally 200 mg/kg/day, day 5
  Percent body weight change in days post infection: −3%
LD70, intraperitoneally 200 mg/kg/day, day 7
  Percent body weight change in days post infection: −7%
LD70, intraperitoneally 200 mg/kg/day, day 9
  Percent body weight change in days post infection: +4%
LD70, intraperitoneally 200 mg/kg/day, day 11
  Percent body weight change in days post infection: +6%
LD70, intraperitoneally 200 mg/kg/day, day 13
  Percent body weight change in days post infection: +15%
LD70, orally 100 mg/kg/day
  Average lifetime (days): 13.1 (1-8 d., 1-10 d., 1-11 d.) days
  Percent death protection (%): 40%
LD70, orally 100 mg/kg/day, day 1
  Percent body weight change in days post infection: +19%
LD70, orally 100 mg/kg/day, day 2
  Percent body weight change in days post infection: +23%
LD70, orally 100 mg/kg/day, day 3
  Percent body weight change in days post infection: +25%
LD70, orally 100 mg/kg/day, day 4
  Percent body weight change in days post infection: +22%
LD70, orally 100 mg/kg/day, day 5
  Percent body weight change in days post infection: +16%
LD70, orally 100 mg/kg/day, day 7
  Percent body weight change in days post infection: +17%
LD70, orally 100 mg/kg/day, day 9
  Percent body weight change in days post infection: +24%
